Measurements from paper PMC6375636, “Monotherapy with a low-dose lipopeptide HIV fusion inhibitor maintains long-term viral suppression in rhesus macaques” (PLoS Pathogens, 2019).
Read-outs that look alike come from different tables or passages of the source. Peptide text beside a SMILES is read from it. * marks the point of attachment. Stearoyl = CCCCCCCCCCCCCCCCCC(=O)*

Tests used:
[1] = tested on: HIV-1NL4-3(D36G) pseudovirus; type: cell-based
Outline: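 Env-pseudotyped luciferase reporter viruses (pSG3Δenv backbone) made in HEK293T cells. 3-fold inhibitor dilutions preincubated 1 h at room temperature with 100 TCID50 virus before infection. Inhibition read as luciferase activity.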

[2] = tested on: HIV-1 pseudovirus, primary Env CE1176_A3; type: cell-based; conditions: Env CE1176_A3, subtype C; mean ± SD of 3 assays in triplicate
Outline: (§1)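 Steps: transfect HEK293T to produce virus, harvesting supernatants at 48 h; titrate on TZM-bl; mix 100 TCID50 with inhibitor in threefold dilutions for 1 h at room temperature; infect TZM-bl cells, 10^4 per well; after 48 h at 37°C, measure luciferase.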

[3] = tested on: HIV-1 pseudovirus, primary Env CH110; type: cell-based; conditions: Env CH110, subtype B/C; mean ± SD of 3 assays in triplicate
Outline: as §1

[4] = tested on: HIV-1 pseudovirus, primary Env 43–22; type: cell-based; conditions: Env 43–22, subtype B'; mean ± SD of 3 assays in triplicate
Outline: as §1

[5] = tested on: HIV-1 pseudovirus, primary Env SHX335.24; type: cell-based; conditions: Env SHX335.24, subtype A/E; mean ± SD of 3 assays in triplicate
Outline: as §1

[6] = tested on: HIV-1 pseudovirus, primary Env 92RW020; type: cell-based; conditions: Env 92RW020, subtype A; mean ± SD of 3 assays in triplicate
Outline: as §1

[7] = tested on: divergent HIV-1 subtypes (pseudoviruses with primary Envs); type: cell-based; conditions: mean of the 36 pseudoviruses of Table 3; for VRC01 >300000 apparently counted as 300000; read-out: Mean IC50 over divergent HIV-1 subtypes
Outline: as §1

[8] = tested on: HIV-1 pseudovirus, primary Env AC10.0.29; type: cell-based; conditions: Env AC10.0.29, subtype B; mean ± SD of 3 assays in triplicate
Outline: as §1

[9] = tested on: HIV-1 pseudovirus, primary Env CNE55; type: cell-based; conditions: Env CNE55, subtype A/E; mean ± SD of 3 assays in triplicate
Outline: as §1

[10] = tested on: HIV-1 pseudovirus, primary Env B02; type: cell-based; conditions: Env B02, subtype B'; mean ± SD of 3 assays in triplicate
Outline: as §1

[11] = tested on: HIV-1 pseudovirus, primary Env CNE8; type: cell-based; conditions: Env CNE8, subtype A/E; mean ± SD of 3 assays in triplicate
Outline: as §1

[12] = tested on: HIV-1 pseudovirus, primary Env JRFL; type: cell-based; conditions: subtype B, mean ± SD of 3 assays in triplicate
Outline: as §1

[13] = target: HIV-1JRCSF; type: cell-based
Outline: as §1

[14] = tested on: HIV-1 pseudovirus, primary Env CAP210.2.00.E8; type: cell-based; conditions: Env CAP210.2.00.E8, subtype C; mean ± SD of 3 assays in triplicate
Outline: as §1

[15] = tested on: HIV-1 pseudovirus, primary Env TRO.11; type: cell-based; conditions: Env TRO.11, subtype B; mean ± SD of 3 assays in triplicate
Outline: as §1

[16] = tested on: HIV-1 pseudovirus, primary Env GX11.13; type: cell-based; conditions: Env GX11.13, subtype A/E; mean ± SD of 3 assays in triplicate
Outline: as §1

[17] = target: HIV-1 THRO.c/2626; type: cell-based; conditions: Table 2; THRO.c/2626, subtype B, R5; mean ± SD of 3 assays in triplicate
Outline: as §1

[18] = tested on: HIV-1 pseudovirus, primary Env ZM53M.PB12; type: cell-based; conditions: Env ZM53M.PB12, subtype C; mean ± SD of 3 assays in triplicate
Outline: as §1

[19] = target: HIV-1 WITO.c/2474; type: cell-based; conditions: Table 2; WITO.c/2474, subtype B, R5; mean ± SD of 3 assays in triplicate
Outline: as §1

[20] = target: HIV-1 LAI; type: cell-based; conditions: Table 2, subtype B, X4, mean ± SD of 3 assays in triplicate
Outline: as §1

[21] = target: T1, gp41 NHR-derived target mimic peptide N39 (Human immunodeficiency virus type 1 group M subtype B, UniProt P04578); assay: CD spectroscopy of lipopeptides in complex with target mimic peptide N39; type: binding, HIV-1; set-up: [θ]222: unit not given here; conditions: complex with N39, each peptide 10 μM in PBS; representative of 2 assays
T1 construct: the gp41 NHR-derived target mimic peptide N39
Text: Spectra were corrected by subtracting a solvent blank.

[22] = lipopeptide alone, 10 μM in PBS; [θ]222 / -33,000; representative of 2 assays

T1 sequence (P04578 528-566): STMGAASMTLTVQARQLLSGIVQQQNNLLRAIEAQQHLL

`CCCCCCCCCCCCCCCCCC(=O)NCCCC[C@H](NC(=O)[C@H](CCC(=O)O)NC(=O)[C@H](CC(C)C)NC(=O)[C@H](CCCCN)NC(=O)[C@H](CCCCN)NC(=O)[C@H](CC(C)C)NC(=O)[C@H](CCC(=O)O)NC(=O)[C@H](CCC(=O)O)NC(=O)[C@H](CCC(=O)O)NC(=O)[C@H](CC(N)=O)NC(=O)[C@H](CCCCN)NC(=O)[C@H](CCCCN)NC(=O)[C@H](CCC(N)=O)NC(=O)[C@H](CCC(N)=O)NC(=O)[C@H](CCC(=O)O)NC(=O)[C@H](CCC(=O)O)NC(=O)[C@H](C)NC(=O)[C@H](CCCCN)NC(=O)[C@H](CCCCN)NC(=O)[C@H](CC(C)C)NC(=O)[C@H](CC(C)C)NC(=O)[C@H](CCC(=O)O)NC(=O)[C@H](CCC(=O)O)NC(=O)[C@@H](NC(C)=O)[C@@H](C)CC)C(N)=O` [LP-90] (Ac-IEELLKKAEEQQKKNEEELKKLEK(Stearoyl)-NH2) showed an IC50 ([1]; Fig 1, NL4-3(D36G) pseudovirus, mean ± SD of three assays in triplicate, read-out: Anti-HIV activity (IC50, pM) NL4-3 entry) of 3.55 pM, an IC50 ([1]; Table 4, NL4-3D36G, T-20 sensitive, mean ± SD of 3 assays in triplicate, value in parentheses behind the bound, read-out: IC50) of under 10 pM and an IC50 [2] of 8.77 ± 1.95 pM. It also gave an IC50 [3] of 7.85 ± 1.22 pM, an IC50 [4] of 3.9 ± 1.33 pM and an IC50 [5] of 3.01 ± 0.2 pM. The IC50 [6] was 15.1 ± 0.62 pM, the IC50 [7] was 13.4 pM and the IC50 [8] was 4.42 ± 0.28 pM. The IC50 [9] was 2.54 ± 0.89 pM, the IC50 [10] was 15.5 ± 3.68 pM and the IC50 [11] was 22.5 ± 2.6 pM. It also gave an IC50 [12] of 12.2 ± 0.83 pM, an IC50 ([13]; Fig 1, replication-competent virus, mean ± SD of three assays in triplicate, read-out: Anti-HIV activity (IC50, pM) JRCSF infection) of 5.4 pM and an IC50 ([13]; Table 2, JR-CSF, subtype B, R5, mean ± SD of 3 assays in triplicate, read-out: Mean IC50) of 9.33 ± 1.97 pM. It also gave an IC50 [14] of 29.1 ± 1.33 pM, an IC50 [15] of 8.95 ± 2.3 pM and an IC50 [16] of 24.8 ± 1.59 pM. For the same compound, the IC50 [17] was 14.6 ± 2.24 pM, the IC50 [18] was 8.81 ± 0.46 pM and the IC50 [19] was 4.06 ± 1.67 pM. The IC50 [20] was 8.34 ± 1.54 pM, the “Helix content (%)” value [21] was 42% and the “[θ]222” value [21] was -13989. The “Helix content (%)” value [22] was 30%.
